Target: T1, human PAD4 (Homo sapiens, UniProt Q9UM07)
T1 construct: human PAD4 (NM_012387), A2-P663, was PCR amplified; His-SUMO (N, cleaved yes); made in house; host or cells: E. coli BL21(DE3)
Experiment: In vitro PAD4 BAEE biochemical assay
Conditions: BAEE substrate 3 mM, 5 nM PAD4, 2 mM calcium chloride; geometric mean of multiple experiments
Outline: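 Recombinant human PAD4 (5 nM final) with 2 mM CaCl2 was preincubated with compound 30 min at 25 °C in MOPS buffer pH 7.6, then reacted with 3 mM BAEE for 2 h at 25 °C. After EDTA stop, released ammonia was detected by o-phthalaldehyde/DTT fluorescence (ex 405/em 535 nm); IC50 from four-parameter fit, geometric mean.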

T1 sequence (Q9UM07 2-663): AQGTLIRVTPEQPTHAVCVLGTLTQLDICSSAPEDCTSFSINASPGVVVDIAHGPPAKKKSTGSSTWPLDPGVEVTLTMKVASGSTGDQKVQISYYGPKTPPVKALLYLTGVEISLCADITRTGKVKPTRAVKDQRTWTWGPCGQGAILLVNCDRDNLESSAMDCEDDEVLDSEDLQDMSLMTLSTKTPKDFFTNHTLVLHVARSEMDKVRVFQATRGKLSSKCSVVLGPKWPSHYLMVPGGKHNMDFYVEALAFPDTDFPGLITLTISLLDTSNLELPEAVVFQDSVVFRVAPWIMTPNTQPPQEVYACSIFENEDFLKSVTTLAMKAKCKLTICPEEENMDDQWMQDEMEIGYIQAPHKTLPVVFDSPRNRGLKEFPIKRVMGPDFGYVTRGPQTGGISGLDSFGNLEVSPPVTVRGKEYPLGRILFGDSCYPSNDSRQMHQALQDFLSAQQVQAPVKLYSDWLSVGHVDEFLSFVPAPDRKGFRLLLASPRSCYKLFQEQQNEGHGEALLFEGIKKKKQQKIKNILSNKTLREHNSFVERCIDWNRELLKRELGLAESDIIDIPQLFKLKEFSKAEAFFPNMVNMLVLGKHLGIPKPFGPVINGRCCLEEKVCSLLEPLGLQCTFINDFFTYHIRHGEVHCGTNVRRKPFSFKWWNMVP

First: COc1cc(C(=O)N2CCC[C@@H](N)C2)cn2nc(-c3cc4ccc5nc4n3CCCCCCC(C)(C)C(=O)N[C@@H]5C)c(C)c12 [Example 27, (11~{R})-17-[6-[(3~{R})-3-aminopiperidine-1-carbonyl]-4-methoxy-3-methyl-pyrazolo[1,5-a]pyridin-2-yl]-8,8,11-trimethyl-1,10,19-triazatricyclo[10.5.2.0^{15,18}]nonadeca-12(19),13,15(18),16-tetraen-9-one]
Second: COc1cc(C(=O)N2CCC[C@@H](N)C2)cc2nc(-c3cc4ccc5nc4n3CCCCCCc3ccccc3C(=O)N[C@@H]5C)n(C)c12 [Example 29, (2~{R})-18-[5-[(3~{R})-3-aminopiperidine-1-carbonyl]-7-methoxy-1-methyl-benzimidazol-2-yl]-2-methyl-3,17,23-triazatetracyclo[15.5.2.0^{5,10}.0^{20,24}] tetracosa-1(23),5,7,9,18,20(24),21-heptaen-4-one]
The IC50 of the first is 2.9-fold higher: 201 nM for the first, 70 nM for the second. The second is the more potent here.

Going from `COc1cc(C(=O)N2CCC[C@@H](N)C2)cc2nc(-c3cc4ccc5nc4n3CCCCCc3ccccc3C(=O)N[C@@H]5C)n(C)c12` [Example 28, (2~{R})-17-[5-[(3~{R})-3-aminopiperidine-1-carbonyl]-7-methoxy-1-methyl-benzimidazol-2-yl]-2-methyl-3,16,22-triazatetracyclo[14.5.2.0^{5,10}.0^{19,23}] tricosa-1(22),5,7,9,17,19(23),20-heptaen-4-one] to `COc1cc(C(=O)N2CCC[C@@H](N)C2)cc2nc(-c3cc4ccc5nc4n3CCCCOc3ccccc3C(=O)N[C@@H]5C)n(C)c12` [Example 30, (2~{R})-17-[5-[(3~{R})-3-aminopiperidine-1-carbonyl]-7-methoxy-1-methyl-benzimidazol-2-yl]-2-methyl-11-oxa-3,16,22-triazatetracyclo[14.5.2.0^{5,10).0^{19,23}] tricosa-1(22),5,7,9,17,19(23),20-heptaen-4-one], the IC50 rises from 46 nM to 1780 nM (39-fold).

`COc1cc(C(=O)N[C@H]2CNCC[C@@H]2F)cc2nc(-c3cc4ccc5nc4n3CCCCCc3ccccc3C(=O)N[C@@H]5C)n(C)c12` [Example 31, ~{N}-[(3~{S},4~{S})-4-fluoro-3-piperidyl]-7-methoxy-1-methyl-2-[(2~{R})-2-methyl-4-oxo-3,16,22-triazatetracyclo[14.5.2.0^{5,10}.0^{19,23}]tricosa-1(22),5,7,9,17,19(23),20-heptaen-17-yl]benzimidazole-5-carboxamide] and `COc1cc(C(=O)N2C[C@H](N)CCN2C)cc2nc(-c3cc4ccc5nc4n3CCCCCc3ccccc3C(=O)N[C@@H]5C)n(C)c12` [Example 44, (2~{R})-17-[5-[(5~{R})-5-amino-2-methyl-hexahydropyridazine-1-carbonyl]-7-methoxy-1-methyl-benzimidazol-2-yl]-2-methyl-3,16,22-triazatetracyclo[14.5.2.0^{5,10}.0^{19,23}] tricosa-1(22),5,7,9,17,19(23),20-heptaen-4-one] are within 1.5-fold of each other in IC50: 81 nM for the first, 64 nM for the second.

Going from `COc1cc(C(=O)N2[C@H]3CC[C@@H]2[C@H](N)C3)cc2nc(-c3cc4ccc5nc4n3CCCCCn3nccc3C(=O)N[C@@H]5C)c(C)n12` [Example 32, (2~{R})-16-[7-[(1~{R},2~{R},4~{S})-2-amino-7-azabicyclo[2.2.1]heptane-7-carbonyl]-5-methoxy-3-methyl-imidazo[1,2-a]pyridin-2-yl]-2-methyl-3,8,9,15,21-pentazatetracyclo[13.5.2.0^{5,9}.0^{18,22}] docosa-1(21),5,7,16,18(22),19-hexaen-4-one] to `COc1cc(C(=O)N2[C@H]3CC[C@@H]2[C@H](N)C3)cc2nc(-c3cc4ccc5nc4n3CCCCCCn3nccc3C(=O)N[C@@H]5C)c(C)n12` [Example 35, (2~{R})-17-[7-[(1~{R},2~{R},4~{S})-2-amino-7-azabicyclo[2.2.1]heptane-7-carbonyl]-5-methoxy-3-methyl-imidazo[1,2-a]pyridin-2-yl]-2-methyl-3,8,9,16,22-pentazatetracyclo[14.5.2.0^{5,9).0^{19,23}] tricosa-1(22),5,7,17,19(23),20-hexaen-4-one], the IC50 rises from 12 nM to 34 nM (2.8-fold).

Compared with `COc1cc(C(=O)N2[C@H]3CC[C@@H]2[C@H](N)C3)cc2nc(-c3cc4ccc5nc4n3CCCCCn3ccc(n3)C(=O)N[C@@H]5C)c(C)n12` [Example 33, (2~{R})-15-[7-[(1~{R},2~{R),4~{S})-2-amino-7-azabicyclo[2.2.1]heptane-7-carbonyl]-5-methoxy-3-methyl-imidazo[1,2-a]pyridin-2-yl]-2-methyl-3,8,14,20,22-pentazatetracyclo[12.5.2.1^{5,8}.0^{17,21}] docosa-1(20),5(22),6,15,17(21),18-hexaen-4-one], `COc1cc(C(=O)N2[C@H]3CC[C@@H]2[C@H](N)C3)cc2nc(-c3cc4ccc5nc4n3CCCCCCn3ccc(n3)C(=O)N[C@@H]5C)c(C)n12` [Example 36, (2~{R})-16-[7-[(1~{R},2~{R},4~{S})-2-amino-7-azabicyclo[2.2.1]heptane-7-carbonyl]-5-methoxy-3-methyl-imidazo[1,2-a]pyridin-2-yl]-2-methyl-3,8,15,21,23-pentazatetracyclo[13.5.2.1^{5,8}.0^{18,22}] tricosa-1(21),5(23),6,16,18(22),19-hexaen-4-one] is 1.5-fold higher in IC50: 248 nM for the first, 372 nM for the second. The first is the more potent here.

First: COc1cc(C(=O)N2[C@H]3CC[C@@H]2[C@H](N)C3)cc2nc(-c3cc4ccc5nc4n3CCCCn3nccc3C(=O)N[C@@H]5C)c(C)n12 [Example 34, (2~{R})-15-[7-[(1~{R},2~{R},4~{S})-2-amino-7-azabicyclo[2.2.1]heptane-7-carbonyl]-5-methoxy-3-methyl-imidazo[1,2-a]pyridin-2-yl]-2-methyl-3,8,9,14,20-pentazatetracyclo[12.5.2.0^{5,9}.0^{17,21}] henicosa-1(20),5,7,15,17(21),18-hexaen-4-one]
Second: COc1cc(C(=O)N2[C@H]3CC[C@@H]2[C@H](N)C3)cc2nc(-c3cc4ccc5nc4n3CCCCc3cccc(n3)C(=O)N[C@@H]5C)n(C)c12 [Example 37, (2~{R})-15-[5-[(1~{R},2~{R},4~{S})-2-amino-7-azabicyclo[2.2.1]heptane-7-carbonyl]-7-methoxy-1-methyl-benzimidazol-2-yl]-2-methyl-3,14,20,22-tetrazatetracyclo[12.5.2.1^{5,9}.0^{17,21}] docosa-1(20),5,7,9(22),15,17(21),18-heptaen-4-one]
The IC50 of the first is 10-fold lower: 54 nM for the first, 553 nM for the second.

First: COc1cc(C(=O)N2[C@H]3CC[C@@H]2[C@H](N)C3)cc2nc(-c3cc4ccc5nc4n3CCCCc3cccc(c3F)C(=O)N[C@@H]5C)n(C)c12 [Example 38, (2~{R})-15-[5-[(1~{R},2~{R},4~{S})-2-amino-7-azabicyclo[2.2.1]heptane-7-carbonyl]-7-methoxy-1-methyl-benzimidazol-2-yl]-22-fluoro-2-methyl-3,14,20-triazatetracyclo[12.5.2.1^{5,9}.0^{17,21}] docosa-1(20),5,7,9(22),15,17(21),18-heptaen-4-one]
Second: COc1cc(C(=O)N2[C@H]3CC[C@@H]2[C@H](N)C3)cc2nc(-c3cc4ccc5nc4n3CCCCCc3ccccc3C(=O)N[C@@H]5C)n(C)c12 [Example 39, (2~{R})-17-[5-[(1~{R},2~{R),4~{S})-2-amino-7-azabicyclo[2.2.1]heptane-7-carbonyl]-7-methoxy-1-methyl-benzimidazol-2-yl]-2-methyl-3,16,22-triazatetracyclo[14.5.2.0^{5,10}.0^{19,23}] tricosa-1(22),5,7,9,17,19(23),20-heptaen-4-one]
The IC50 of the first is 52-fold higher: 1200 nM for the first, 23 nM for the second.

First: COc1cc(C(=O)N2[C@H]3CC[C@@H]2[C@H](N)C3)cc2nc(-c3cc4ccc5nc4n3CCCCCCc3ccccc3C(=O)N[C@@H]5C)n(C)c12 [Example 40, (2~{R})-18-[5-[(1~{R},2~{R},4~{S})-2-amino-7-azabicyclo[2.2.1]heptane-7-carbonyl]-7-methoxy-1-methyl-benzimidazol-2-yl]-2-methyl-3,17,23-triazatetracyclo[15.5.2.0^{5,10).0^{20,24}] tetracosa-1(23),5,7,9,18,20(24),21-heptaen-4-one]
Second: COc1cc(C(=O)N2[C@H]3CC[C@@H]2[C@H](N)C3)cc2nc(-c3cc4ccc5nc4n3CCCCOc3ccccc3C(=O)N[C@@H]5C)n(C)c12 [Example 41, (2~{R})-17-[5-[(1~{R),2~{R},4~{S})-2-amino-7-azabicyclo[2.2.1]heptane-7-carbonyl]-7-methoxy-1-methyl-benzimidazol-2-yl]-2-methyl-11-oxa-3,16,22-triazatetracyclo[14.5.2.0^{5,10}.0^{19,23}] tricosa-1(22),5,7,9,17,19(23),20-heptaen-4-one]
The IC50 of the first is 11-fold lower: 24 nM for the first, 268 nM for the second.

`COc1cc(C(=O)N2C[C@H]3CC[C@@H]2[C@@H]3N)cc2nc(-c3cc4ccc5nc4n3CCCCCc3ccccc3C(=O)N[C@@H]5C)n(C)c12` [Example 42, (2~{R})-17-[5-[(1~{R},4~{R},7~{R})-7-amino-2-azabicyclo[2.2.1]heptane-2-carbonyl]-7-methoxy-1-methyl-benzimidazol-2-yl]-2-methyl-3,16,22-triazatetracyclo[14.5.2.0^{5,10}.0^{19,23}] tricosa-1(22),5,7,9,17,19(23),20-heptaen-4-one] and `COc1cc(C(=O)N2CC[C@@H](OC)[C@@H](N)C2)cc2nc(-c3cc4ccc5nc4n3CCCCCc3ccccc3C(=O)N[C@@H]5C)n(C)c12` [Example 43, (2~{R})-17-[5-[(3~{S},4~{R})-3-amino-4-methoxy-piperidine-1-carbonyl]-7-methoxy-1-methyl-benzimidazol-2-yl]-2-methyl-3,16,22-triazatetracyclo[14.5.2.0^{5,10}.0^{19,23}] tricosa-1(22),5,7,9,17,19(23),20-heptaen-4-one] are within 1.5-fold of each other in IC50: 108 nM for the first, 118 nM for the second.

`COc1cc(C(=O)N2CCC[C@@H](N)C2)cc2nc(-c3cc4ccc5nc4n3CCCCCCC(=O)Nc3ccncc3-5)n(C)c12` [Example 45, 17-[5-[(3~{R})-3-aminopiperidine-1-carbonyl]-7-methoxy-1-methyl-benzimidazol-2-yl]-4,8,16,22-tetrazatetracyclo[14.5.2.0^{2,7}.0^{19,23}] tricosa-1(22),2,4,6,17,19(23),20-heptaen-9-one] showed an IC50 of 4960 nM.
